What all share (type): cell-based, human
Series [1] is described as follows: Cell viability assay (MTT) on normal cell line. As to conditions: human, MCF-10A mammary gland epithelial cells, four days. How it is done: A cell viability test was performed using MCF-10A (human mammary gland epithelial) cell line to investigate the effect of 4a–e and 7a–e on normal cell lines. In this investigation, a concentration of 50 µM of the studied compound is employed for four days, after which cell viability is assessed.
(§1) 4.2. Biological evaluation
4.2.1. Cytotoxic activity using MTT Assay and evaluation of IC50
MTT assay was carried out to study the effect of compounds on mammary epithelial cells (MCF-10A). The medium in which cells were propagated contained Dulbecco's modified Eagle's medium (DMEM)/ Ham's F-12 medium (1:1) supplemented with epidermal growth factor (20 ng/mL), hydrocortisone (500 ng/mL), insulin (10 μg/mL), 2 mM glutamine and 10% foetal calf serum. After every 2-3 days, the cells were passaged using trypsin ethylenediamine tetra acetic acid (EDTA). The cells were seeded at a density of 10^4 cells mL-1 in flat-bottomed culture plates containing 96 wells each. After 24 h, medium was removed from the plates and the compounds in (in 0.1% DMSO) were added (in 200 μL medium to yield a final concentration of 0.1% v/v) to the wells of plates. A single compound was designated with four wells followed by incubation of plates for 96h at 37°C. After incubation, medium was removed completely from the plates followed by addition of MTT (0.4 mg/mL in medium) to each well and subsequent incubation of plates for 3h. MTT (along with the medium) was removed and DMSO (150μL) was added to each well of the culture plates, followed by vortexing and subsequent measurement of absorbance (at 540 nm) using microplate reader. […]

Series [2] deals with A-549 (epithelial cancer cell line). Nature of the series: Antiproliferative assay. As to conditions: Homo sapiens, A549; read-out: Antiproliferative Activity IC50 ± SEM, A-549. The method, then:
(§2) 4.2.1.2. Assay for antiproliferative effect
(§3) To explore the antiproliferative potential of compounds MTT assay was performed according to previously reported procedure using different cell lines to explore the antiproliferative potential of compounds propidium iodide fluorescence assay was performed using different cell lines. To calculate the total nuclear DNA, a fluorescent dye (propidium iodide, PI) is used which can attach to the DNA, thus offering a quick and precise technique. PI cannot pass through the cell membrane and its signal intensity can be considered as directly proportional to quantity of cellular DNA. Cells whose cell membranes are damaged or have changed permeability are counted as dead ones. The assay was performed by seeding the cells of different cell lines at a density of 3000-7500 cells/well (in 200µl […]
(§4) atmospheric conditions. The medium was removed; the compounds were added to the plates at 10 µM concentrations (in 0.1% DMSO) in triplicates, followed by incubation for 48 h. DMSO (0.1%) was used as control. After incubation, medium was removed followed by the addition of PI (25 µl, 50µg/mL in water/medium) to each well of the plates. At -80 °C, the plates were allowed to freeze for 24 h, followed by thawing at 25 °C. A fluorometer (Polar-Star BMG Tech) was used to record the readings at excitation and emission wavelengths of 530 and 620 nm for each well. The percentage cytotoxicity of compounds was calculated using the following formula:
(§5) Where ATC= Absorbance of treated cells and AC= Absorbance of control. […]
(§6) positive control in the assay.

Series [3] has as its system HT-29 (colon cancer cell line). Nature of the series: Antiproliferative assay. As to conditions: Homo sapiens, read-out: Antiproliferative Activity IC50 ± SEM, HT-29. How it is done:
as §2, §3, §4, §5, §6

The test system of series [4] is MCF-7 (breast cancer cell line). Nature of the series: Antiproliferative assay. As to conditions: Homo sapiens, MCF7; read-out: Antiproliferative Activity IC50 ± SEM, MCF-7. How it is done: as §2, §3, §4, §5, §6
The test system of series [5] is Panc-1 (pancreas cancer cell line). Nature of the series: Antiproliferative assay. As to conditions: Homo sapiens, PANC-1; read-out: Antiproliferative Activity IC50 ± SEM, Panc-1. How it is done:
as §1
4.2.1. Cytotoxic activity using MTT Assay and evaluation of IC50 […]
cells were seeded at a density of 10^4 cells mL-1 in flat-bottomed culture plates containing 96 wells each. After 24 h, medium was removed from the plates and the compounds in (in 0.1% DMSO) were added (in 200 μL medium to yield a final concentration of 0.1% v/v) to the wells of plates. A single […]
incubation, medium was removed completely from the plates followed by addition of MTT (0.4 mg/mL in medium) to each well and subsequent incubation of plates for 3h. MTT (along with the medium) was removed and DMSO (150μL) was added to each well of the culture plates, followed by vortexing and subsequent measurement of absorbance (at 540 nm) using microplate reader. The data […]
as §2, §3, §4, §5, §6

The subject of series [6] is four tested cancer cell lines (A-549, MCF-7, Panc-1, HT-29). The experiment in a line: Antiproliferative assay, average over the four cell lines. As to conditions: for GI50: Homo sapiens, mean of the four cancer cell lines; for fold less potent than 4a (GI50): relative to 4a. The method, then:
The newly synthesized compounds were tested for antiproliferative activity against four different types of cancer cells: A-549 (epithelial cancer cell line), MCF-7 (breast cancer cell line), Panc-1 (pancreas cancer cell line), and HT-29 (colon cancer cell line).
After 24 h, medium was removed from the plates and the compounds in (in 0.1% DMSO) were added (in 200 μL medium to yield a final concentration of 0.1% v/v) to the wells of plates. A single compound was designated with four wells followed by incubation of plates for 96h at 37°C. After incubation, medium was removed completely from the plates followed by addition of MTT (0.4 mg/mL in medium) to each well and subsequent incubation of plates for 3h. MTT (along with the medium) was removed and DMSO (150μL) was added to each well of the culture plates, followed by vortexing and subsequent measurement of absorbance (at 540 nm) using microplate reader. The data are shown as percentage inhibition of proliferation in comparison with controls containing 0.1% 4.2.1.2. Assay for antiproliferative effect
To explore the antiproliferative potential of compounds MTT assay was performed according to previously reported procedure using different cell lines to explore the antiproliferative potential of compounds propidium iodide fluorescence assay was performed using different cell lines. To calculate the total nuclear DNA, a fluorescent dye (propidium iodide, PI) is used which can attach to the DNA, thus offering a quick and precise technique. PI cannot pass through the cell membrane and its signal intensity can be considered as directly proportional to quantity of cellular DNA. Cells whose cell membranes are damaged or have changed permeability are counted as dead ones. The assay was performed by seeding the cells of different cell lines at a density of 3000-7500 cells/well (in 200µl medium) in culture plates followed by incubation for 24h at 37 °C in humidified 5% CO2/95% air atmospheric conditions. The medium was removed; the compounds were added to the plates at 10 µM concentrations (in 0.1% DMSO) in triplicates, followed by incubation for 48 h. DMSO (0.1%) was used as control. After incubation, medium was removed followed by the addition of PI (25 µl, 50µg/mL in water/medium) to each well of the plates. At -80 °C, the plates were allowed to freeze for 24 h, followed by thawing at 25 °C. A fluorometer (Polar-Star BMG Tech) was used to record the readings at excitation and emission wavelengths of 530 and 620 nm for each well. The percentage cytotoxicity of compounds was calculated using the following formula:
Where ATC= Absorbance of treated cells and AC= Absorbance of control. Erlotinib was used as positive control in the assay.

Here are results for 4 compounds from PMC9788418, “Design, Synthesis and Biological Evaluation of Syn and Anti-like Double Warhead Quinolinones Bearing Dihydroxy Naphthalene Moiety as Epidermal Growth Factor Receptor Inhibitors with Potential Apoptotic Antiproliferative Action” (Molecules, 2022).

Regarding `Cn1c(=O)cc(-n2cc(COc3cccc4cccc(OCc5cn(-c6cc(=O)n(C)c7ccccc67)nn5)c34)nn2)c2ccccc21` [Compound 4e, 4,4′-(((naphthalene-1,8-diylbis(oxy))bis(methylene))bis(1H-1,2,3-triazole-4,1-diyl))-bis-(1-methylquinolin-2(1H)-one)], the viability at 96 h, 50 µM in series [1] was determined as 90%. Besides, the IC50 in series [2] came out at 123 ± 12 nM; in series [3], 137 ± 13 nM; in series [4], 127 ± 12 nM; in series [5] it was 135 ± 13 nM. Also, the GI50 in series [6] turned out to be 130 nM. Further, the “fold less potent than 4a (GI50)” value in series [6] is “approximately 4 fold”.

Take `Cc1ccc2[nH]c(=O)cc(-n3cc(COc4cccc5c(OCc6cn(-c7cc(=O)[nH]c8ccc(C)cc78)nn6)cccc45)nn3)c2c1` [Compound 7b, 4,4′-(((naphthalene-1,5-diylbis(oxy))bis(methylene))bis(1H-1,2,3-triazole-4,1-diyl))-bis-(6-methylquinolin-2(1H)-one)]: the viability at 96 h, 50 µM in series [1] stood at 93%. The IC50 is 63 ± 6 nM in series [2], 67 ± 6 nM in series [3], 65 ± 6 nM in series [4] and 67 ± 6 nM in series [5]. The compound also displayed a GI50 in series [6] of 65 nM.

Compound `Cn1c(=O)cc(-n2cc(COc3cccc4c(OCc5cn(-c6cc(=O)n(C)c7ccccc67)nn5)cccc34)nn2)c2ccccc21` [Compound 7e, 4,4′-(((naphthalene-1,5-diylbis(oxy))bis(methylene))bis(1H-1,2,3-triazole-4,1-diyl))-bis-(1-methylquinolin-2(1H)-one)] showed a viability at 96 h, 50 µM in series [1] of 85%. In addition, the IC50 in series [2] was 126 ± 13 nM; in series [3], 143 ± 14 nM; in series [4], 130 ± 13 nM; in series [5], 136 ± 13 nM. Moreover, it took 134 nM to inhibit growth in series [6] by half (GI50). For the same compound, the “fold less potent than 4a (GI50)” value in series [6] is on record as “approximately 4 fold”.

Regarding `C#Cc1cccc(Nc2ncnc3cc(OCCOC)c(OCCOC)cc23)c1` [Erlotinib, reference compound], in series [6], the GI50 worked out at 33 nM.

What is called viability is a per cent measure of how many cells are alive, often set against a control. As a reminder, the IC50 is the concentration needed to halve the response being measured. What is called GI50 is the concentration giving 50% growth inhibition. Low readings indicate greater sensitivity of the cells, high ones lower sensitivity of the cells.
